{"source": "patent US8030443B2", "about": "“Squamous cell carcinoma antigen-derived peptide binding to HLA-A24 molecule” (Kurume University, priority 2005, dated 2011)", "test_system": "peptide-specific IgG in sera of cancer patients and healthy donors", "assay": "Measurement of anti-peptide IgG in plasma by LUMINEX multiplexed flow cytometric assay", "type": "binding, human", "outline": "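Plasma diluted 1/100 incubated with peptide-coupled colour-coded beads 2 h at RT, then biotinylated goat anti-human IgG (γ-chain) 1 h and streptavidin-PE 30 min; fluorescence read by multiplexed flow cytometry, >100 counted significant. Specificity checked by three rounds of absorption on corresponding versus irrelevant SCCA peptide.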"}
{"sequence": "QFQKLLTEF (SCCA 84-92 peptide) [SCCA-derived peptide, position 84-92]", "values": [{"measurement": "Total: healthy donors with significant peptide-reactive IgG / donors tested", "setting": "10 healthy donors, significant when fluorescence intensity exceeded 100 at 1/100 dilution", "result": "1/10"}, {"measurement": "Total: cancer patients with significant peptide-reactive IgG / patients tested", "setting": "71 cancer patients, significant when fluorescence intensity exceeded 100 at 1/100 dilution", "result": "14/71"}, {"measurement": "Fluorescence intesity", "setting": "serum of Breast Ca. patient #36, 1:100 dilution", "result": 95}, {"measurement": "Fluorescence intesity", "setting": "serum of Breast Ca. patient #37, 1:100 dilution", "result": 0}, {"measurement": "Fluorescence intesity", "setting": "serum of Breast Ca. patient #38, 1:100 dilution", "result": 31}, {"measurement": "Fluorescence intesity", "setting": "serum of Breast Ca. patient #39, 1:100 dilution", "result": 34}, {"measurement": "Fluorescence intesity", "setting": "serum of Breast Ca. patient #40, 1:100 dilution", "result": 5}, {"measurement": "Fluorescence intesity", "setting": "serum of Breast Ca. patient #41, 1:100 dilution", "result": 182}, {"measurement": "Fluorescence intesity", "setting": "serum of Breast Ca. patient #42, 1:100 dilution", "result": 11}, {"measurement": "Fluorescence intesity", "setting": "serum of Breast Ca. patient #43, 1:100 dilution", "result": 26}, {"measurement": "Fluorescence intesity", "setting": "serum of Breast Ca. patient #44, 1:100 dilution", "result": 20}, {"measurement": "Fluorescence intesity", "setting": "serum of Breast Ca. patient #45, 1:100 dilution", "result": 39}, {"measurement": "Fluorescence intesity", "setting": "serum of Colon Ca. patient #66, 1:100 dilution", "result": 0}, {"measurement": "Fluorescence intesity", "setting": "serum of Colon Ca. patient #67, 1:100 dilution", "result": 47}, {"measurement": "Fluorescence intesity", "setting": "serum of Colon Ca. patient #68, 1:100 dilution", "result": 0}, {"measurement": "Fluorescence intesity", "setting": "serum of Colon Ca. patient #69, 1:100 dilution", "result": 0}, {"measurement": "Fluorescence intesity", "setting": "serum of Colon Ca. patient #70, 1:100 dilution", "result": 0}, {"measurement": "Fluorescence intesity", "setting": "serum of Colon Ca. patient #71, 1:100 dilution", "result": 8}, {"measurement": "Fluorescence intesity", "setting": "serum of Gastric Ca. patient #56, 1:100 dilution", "result": 18}, {"measurement": "Fluorescence intesity", "setting": "serum of Gastric Ca. patient #57, 1:100 dilution", "result": 7}, {"measurement": "Fluorescence intesity", "setting": "serum of Gastric Ca. patient #58, 1:100 dilution", "result": 0}, {"measurement": "Fluorescence intesity", "setting": "serum of Gastric Ca. patient #59, 1:100 dilution", "result": 118}, {"measurement": "Fluorescence intesity", "setting": "serum of Gastric Ca. patient #60, 1:100 dilution", "result": 0}, {"measurement": "Fluorescence intesity", "setting": "serum of Gastric Ca. patient #61, 1:100 dilution", "result": 102}, {"measurement": "Fluorescence intesity", "setting": "serum of Gastric Ca. patient #62, 1:100 dilution", "result": 0}, {"measurement": "Fluorescence intesity", "setting": "serum of Gastric Ca. patient #63, 1:100 dilution", "result": 0}, {"measurement": "Fluorescence intesity", "setting": "serum of Gastric Ca. patient #64, 1:100 dilution", "result": 7}, {"measurement": "Fluorescence intesity", "setting": "serum of Gastric Ca. patient #65, 1:100 dilution", "result": 0}, {"measurement": "Fluorescence intesity", "setting": "serum of Healthy Donor #1, 1:100 dilution", "result": 0}, {"measurement": "Fluorescence intesity", "setting": "serum of Healthy Donor #2, 1:100 dilution", "result": 79}, {"measurement": "Fluorescence intesity", "setting": "serum of Healthy Donor #3, 1:100 dilution", "result": 0}, {"measurement": "Fluorescence intesity", "setting": "serum of Healthy Donor #4, 1:100 dilution", "result": 0}, {"measurement": "Fluorescence intesity", "setting": "serum of Healthy Donor #5, 1:100 dilution", "result": 0}, {"measurement": "Fluorescence intesity", "setting": "serum of Healthy Donor #6, 1:100 dilution", "result": 0}, {"measurement": "Fluorescence intesity", "setting": "serum of Healthy Donor #7, 1:100 dilution", "result": 0}, {"measurement": "Fluorescence intesity", "setting": "serum of Healthy Donor #8, 1:100 dilution", "result": 332}, {"measurement": "Fluorescence intesity", "setting": "serum of Healthy Donor #9, 1:100 dilution", "result": 33}, {"measurement": "Fluorescence intesity", "setting": "serum of Healthy Donor #10, 1:100 dilution", "result": 0}, {"measurement": "Fluorescence intesity", "setting": "serum of Pancreas Ca. patient #46, 1:100 dilution", "result": 0}, {"measurement": "Fluorescence intesity", "setting": "serum of Pancreas Ca. patient #47, 1:100 dilution", "result": 3}, {"measurement": "Fluorescence intesity", "setting": "serum of Pancreas Ca. patient #48, 1:100 dilution", "result": 344}, {"measurement": "Fluorescence intesity", "setting": "serum of Pancreas Ca. patient #49, 1:100 dilution", "result": 0}, {"measurement": "Fluorescence intesity", "setting": "serum of Pancreas Ca. patient #50, 1:100 dilution", "result": 0}, {"measurement": "Fluorescence intesity", "setting": "serum of Pancreas Ca. patient #51, 1:100 dilution", "result": 0}, {"measurement": "Fluorescence intesity", "setting": "serum of Pancreas Ca. patient #52, 1:100 dilution", "result": 108}, {"measurement": "Fluorescence intesity", "setting": "serum of Pancreas Ca. patient #53, 1:100 dilution", "result": 0}, {"measurement": "Fluorescence intesity", "setting": "serum of Pancreas Ca. patient #54, 1:100 dilution", "result": 13}, {"measurement": "Fluorescence intesity", "setting": "serum of Pancreas Ca. patient #55, 1:100 dilution", "result": 0}, {"measurement": "Fluorescence intesity", "setting": "serum of Uterine cervical Ca. patient #1, 1:100 dilution", "result": 20}, {"measurement": "Fluorescence intesity", "setting": "serum of Uterine cervical Ca. patient #2, 1:100 dilution", "result": 2}, {"measurement": "Fluorescence intesity", "setting": "serum of Uterine cervical Ca. patient #3, 1:100 dilution", "result": 0}, {"measurement": "Fluorescence intesity", "setting": "serum of Uterine cervical Ca. patient #4, 1:100 dilution", "result": 29}, {"measurement": "Fluorescence intesity", "setting": "serum of Uterine cervical Ca. patient #5, 1:100 dilution", "result": 15}, {"measurement": "Fluorescence intesity", "setting": "serum of Uterine cervical Ca. patient #6, 1:100 dilution", "result": 922}, {"measurement": "Fluorescence intesity", "setting": "serum of Uterine cervical Ca. patient #7, 1:100 dilution", "result": 12}, {"measurement": "Fluorescence intesity", "setting": "serum of Uterine cervical Ca. patient #8, 1:100 dilution", "result": 28}, {"measurement": "Fluorescence intesity", "setting": "serum of Uterine cervical Ca. patient #9, 1:100 dilution", "result": 67}, {"measurement": "Fluorescence intesity", "setting": "serum of Uterine cervical Ca. patient #10, 1:100 dilution", "result": 15}, {"measurement": "Fluorescence intesity", "setting": "serum of Uterine cervical Ca. patient #11, 1:100 dilution", "result": 23}, {"measurement": "Fluorescence intesity", "setting": "serum of Uterine cervical Ca. patient #12, 1:100 dilution", "result": 35}, {"measurement": "Fluorescence intesity", "setting": "serum of Uterine cervical Ca. patient #13, 1:100 dilution", "result": 23}, {"measurement": "Fluorescence intesity", "setting": "serum of Uterine cervical Ca. patient #14, 1:100 dilution", "result": 20}, {"measurement": "Fluorescence intesity", "setting": "serum of Uterine cervical Ca. patient #15, 1:100 dilution", "result": 116}, {"measurement": "Fluorescence intesity", "setting": "serum of Uterine cervical Ca. patient #16, 1:100 dilution", "result": 182}, {"measurement": "Fluorescence intesity", "setting": "serum of Uterine cervical Ca. patient #17, 1:100 dilution", "result": 56}, {"measurement": "Fluorescence intesity", "setting": "serum of Uterine cervical Ca. patient #18, 1:100 dilution", "result": 49}, {"measurement": "Fluorescence intesity", "setting": "serum of Uterine cervical Ca. patient #19, 1:100 dilution", "result": 62}, {"measurement": "Fluorescence intesity", "setting": "serum of Uterine cervical Ca. patient #20, 1:100 dilution", "result": 106}, {"measurement": "Fluorescence intesity", "setting": "serum of Uterine cervical Ca. patient #21, 1:100 dilution", "result": 19}, {"measurement": "Fluorescence intesity", "setting": "serum of Uterine cervical Ca. patient #22, 1:100 dilution", "result": 20}, {"measurement": "Fluorescence intesity", "setting": "serum of Uterine cervical Ca. patient #23, 1:100 dilution", "result": 57}, {"measurement": "Fluorescence intesity", "setting": "serum of Uterine cervical Ca. patient #24, 1:100 dilution", "result": 1819}, {"measurement": "Fluorescence intesity", "setting": "serum of Uterine cervical Ca. patient #25, 1:100 dilution", "result": 17}, {"measurement": "Fluorescence intesity", "setting": "serum of Uterine cervical Ca. patient #26, 1:100 dilution", "result": 128}, {"measurement": "Fluorescence intesity", "setting": "serum of Uterine cervical Ca. patient #27, 1:100 dilution", "result": 28}, {"measurement": "Fluorescence intesity", "setting": "serum of Uterine cervical Ca. patient #28, 1:100 dilution", "result": 139}, {"measurement": "Fluorescence intesity", "setting": "serum of Uterine cervical Ca. patient #29, 1:100 dilution", "result": 14}, {"measurement": "Fluorescence intesity", "setting": "serum of Uterine cervical Ca. patient #30, 1:100 dilution", "result": 33}, {"measurement": "Fluorescence intesity", "setting": "serum of Uterine cervical Ca. patient #31, 1:100 dilution", "result": 108}, {"measurement": "Fluorescence intesity", "setting": "serum of Uterine cervical Ca. patient #32, 1:100 dilution", "result": 18}, {"measurement": "Fluorescence intesity", "setting": "serum of Uterine cervical Ca. patient #33, 1:100 dilution", "result": 141}, {"measurement": "Fluorescence intesity", "setting": "serum of Uterine cervical Ca. patient #34, 1:100 dilution", "result": 15}, {"measurement": "Fluorescence intesity", "setting": "serum of Uterine cervical Ca. patient #35, 1:100 dilution", "result": 18}]}
